According to patent US20250296960A1, “PEPTIDE COMPOSITIONS AND METHODS OF USE THEREOF” (priority 2022, published 2025):
Square brackets hold non-standard residues; d marks the D form. Peptide text beside a SMILES is read from it. * marks the point of attachment. X1 = O=C(O)CCCCCCCCCCCCCCCCC(=O)N[C@@H](CCC(=O)NCCOCCOCC(=O)NCCOCCOCC(=O)NCCN1C(=O)CC(*)C1=O)C(=O)O; Aib = CC(C)(N)C(=O)O

Key:
[1] = Body weight loss in normal C57BL/6 mice, subcutaneous dosing; assay type: in vivo; conditions: normal mice, after 48 or 72 hours
Description: To confirm the therapeutic effect of the peptide in vivo, polypeptides were administered to mice to measure changes in body weight. […] The peptides were delivered at 0.02% polysorbate 80 (PS80) in PBS and dosing volume was 10 mL/kg. Body weight was monitored 6 h, QD.
To confirm the therapeutic effect of the peptide in obesity, diabetes, or NASH, polypeptides were administered to mice to measure changes in food intake, blood glucose and body weight. […] In addition, a NASH animal model was prepared by feeding a high fat, high fructose, high cholesterol diet to normal C57BL/6 mice (approximately 6 weeks old) for approximately 21 weeks, and increasing the body weights of the mice to approximately 50 g on average. Thereafter, polypeptides were administered by subcutaneous injection at dose of 20 nmol/kg once every other day for 2 weeks. Body weight and food intake were measured once every other day given points of time. After 2 weeks of treatment period, mice were sacrificed, then liver weight, hepatic triglyceride, and NASH related biomarkers were measured.
DD01 administered at 40 nmol/kg, s.c. Q2D as positive control was delivered at 0.02% PS80 in PBS and dosing volume was 10 mL/kg. Body weight was monitored QD for 4 days.
The peptides were delivered at 0.02% PS80 in PBS and dosing volume was 10 mL/kg. Food intake, blood glucose, and body weight changes were monitored QD.

[2] = target: T1, human GCGR (Homo sapiens, UniProt P47871); assay: cAMP assay (HitHunter cAMP) in GCGR-expressing CHO-K1 cells (GCGR+ cells); assay type: cell-based; conditions: for Activity relative to STD peptide (%), GCGR: Table 18; for Activity relative to GLP-1 (%), GCGR: Table 19; for Relative % to native ligand, GCGR: Table 24, ratio of EC50 of native ligand over peptide; for Ratio vs. GLP-1R, GCGR: Table 25; for Relative % to non-lipidated peptide, GCGR: Table 26
T1 construct: host or cells: CHO-K1
Description: (§1) The cells were seeded in a 96-well plate at 7×10^3 cells/well using cell plate reagent and incubated the cells overnight at 37° C. and 5% CO2. To perform the cAMP detection assay, cell plating reagent were replaced with the cAMP Assay buffer. Each of the wells was then treated with the diluted peptide and incubated for 30 minutes under conditions of a temperature of 37° C. in a CO2 incubator.
(§2) After the incubation, cAMP Antibody reagent and Working cAMP detection solution to all wells. Incubate the plate for 1 hour at Room temperature in the dark. Then, cAMP Solution A was added and incubated for 3 hours at room temperature in the dark. Subsequently, the luminescence was measured using the microplate reader device.

[3] = target: T2, human GIPR (Homo sapiens, UniProt P48546); assay: cAMP assay (HitHunter cAMP) in GIPR-expressing CHO-K1 cells (GIPR+ cells); assay type: cell-based; conditions: for Activity relative to STD peptide (%), GIPR: Table 18; for Activity relative to GLP-1 (%), GIPR: Table 19; for Relative % to native ligand, GIPR: Table 24, ratio of EC50 of native ligand over peptide; for Ratio vs. GLP-1R, GIPR: Table 25; for Relative % to non-lipidated peptide, GIPR: Table 26
T2 construct: host or cells: CHO-K1
T2 sequence (P48546 22-466): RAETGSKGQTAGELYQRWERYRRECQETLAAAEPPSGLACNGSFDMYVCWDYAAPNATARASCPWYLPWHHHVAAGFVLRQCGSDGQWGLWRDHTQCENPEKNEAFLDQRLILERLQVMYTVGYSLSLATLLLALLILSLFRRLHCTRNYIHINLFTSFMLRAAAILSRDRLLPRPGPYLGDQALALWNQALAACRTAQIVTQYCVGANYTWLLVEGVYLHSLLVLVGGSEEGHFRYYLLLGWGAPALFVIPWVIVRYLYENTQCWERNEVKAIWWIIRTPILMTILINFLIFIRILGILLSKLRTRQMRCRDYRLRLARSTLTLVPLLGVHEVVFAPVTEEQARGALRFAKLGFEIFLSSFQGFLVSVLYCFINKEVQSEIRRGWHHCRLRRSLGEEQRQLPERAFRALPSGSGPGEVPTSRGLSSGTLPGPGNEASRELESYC
Description: as §1, §2

[4] = target: T3, human GLP-1R (Homo sapiens, UniProt P43220); assay: cAMP assay (HitHunter cAMP) in GLP-1R-expressing CHO-K1 cells (GLP-1R+ cells); assay type: cell-based; conditions: for Activity relative to STD peptide (%), GLP-1R: Table 18; for Activity relative to GLP-1 (%), GLP-1R: Table 19; for Relative % to native ligand, GLP-1R: Table 24, ratio of EC50 of native ligand over peptide; for Ratio vs. GLP-1R, GLP-1R: Table 25; for Relative % to non-lipidated peptide, GLP-1R: Table 26
T3 construct: host or cells: CHO-K1
Description: as §1, §2

[5] = normalised to activity at GLP-1R
[6] = Table 13, EC50 of STD peptide over EC50 of peptide
[7] = Table 14, normalised to activity at GLP-1R

T3 sequence (P43220 24-463): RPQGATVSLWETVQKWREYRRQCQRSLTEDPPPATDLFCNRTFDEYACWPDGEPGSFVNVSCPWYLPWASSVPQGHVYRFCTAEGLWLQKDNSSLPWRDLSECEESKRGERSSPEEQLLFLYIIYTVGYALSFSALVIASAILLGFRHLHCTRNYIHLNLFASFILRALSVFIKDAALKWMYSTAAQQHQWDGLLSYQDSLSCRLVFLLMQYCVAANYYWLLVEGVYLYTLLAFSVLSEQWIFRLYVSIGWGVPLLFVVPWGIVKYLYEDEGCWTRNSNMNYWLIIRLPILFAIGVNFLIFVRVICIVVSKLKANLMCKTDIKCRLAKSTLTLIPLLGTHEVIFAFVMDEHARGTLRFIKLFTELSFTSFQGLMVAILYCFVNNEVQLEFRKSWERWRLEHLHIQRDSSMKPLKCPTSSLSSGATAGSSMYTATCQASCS
T1 sequence (P47871 26-477): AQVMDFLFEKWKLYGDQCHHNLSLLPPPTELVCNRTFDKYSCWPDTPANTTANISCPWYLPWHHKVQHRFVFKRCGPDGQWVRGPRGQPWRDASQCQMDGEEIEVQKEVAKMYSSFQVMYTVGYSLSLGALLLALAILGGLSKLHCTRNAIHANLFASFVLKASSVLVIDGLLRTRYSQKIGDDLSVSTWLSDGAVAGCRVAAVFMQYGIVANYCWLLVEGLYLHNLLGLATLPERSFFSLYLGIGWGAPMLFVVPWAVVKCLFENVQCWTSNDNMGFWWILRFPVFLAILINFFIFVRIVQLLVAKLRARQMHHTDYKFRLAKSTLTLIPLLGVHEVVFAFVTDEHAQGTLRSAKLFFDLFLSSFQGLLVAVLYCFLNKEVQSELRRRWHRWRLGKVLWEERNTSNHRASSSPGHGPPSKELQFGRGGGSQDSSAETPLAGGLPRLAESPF

CC[C@H](C)[C@H](NC(=O)[C@H](CC(C)C)NC(=O)[C@H](Cc1c[nH]c2ccccc12)NC(=O)[C@H](CCC(N)=O)NC(=O)[C@@H](NC(=O)[C@H](Cc1ccccc1)NC(=O)[C@H](CC(=O)O)NC(=O)[C@H](CCCNC(=N)N)NC(=O)[C@H](CCC(N)=O)NC(=O)[C@H](CCSC)NC(=O)[C@H](CCSC)NC(=O)[C@H](Cc1ccc(O)cc1)NC(=O)[C@H](CC(=O)O)NC(=O)[C@H](CC(C)C)NC(=O)[C@H](Cc1ccc(O)cc1)NC(=O)[C@H](CCCCN)NC(=O)[C@H](CO)NC(=O)[C@H](Cc1ccc(O)cc1)NC(=O)[C@H](CC(=O)O)NC(=O)[C@H](CO)NC(=O)[C@@H](NC(=O)[C@H](Cc1ccccc1)NC(=O)[C@@H](NC(=O)CNC(=O)[C@H](CCC(N)=O)NC(=O)C(C)(C)NC(=O)[C@@H](N)Cc1ccc(O)cc1)[C@@H](C)O)[C@@H](C)O)C(C)C)C(=O)N[C@@H](CCC(=O)O)C(=O)NCC(=O)NCC(=O)N1CCC[C@H]1C(=O)N[C@@H](CO)C(=O)N[C@@H](CO)C(=O)NCC(=O)N[C@@H](C)C(=O)N1CCC[C@H]1C(=O)N1CCC[C@H]1C(=O)N1CCC[C@H]1C(=O)N[C@@H](CO)C(=O)N[C@@H](CSC1CC(=O)N(CCNC(=O)COCCOCCNC(=O)COCCOCCNC(=O)CC[C@H](NC(=O)CCCCCCCCCCCCCCCCC(=O)O)C(=O)O)C1=O)C(N)=O (stereo partly shown) [5-2A] (H-Y[Aib]QGTFTSDYSKYLDYMMQRDFVQWLIEGGPSSGAPPPSC(X1)-NH2; N-terminus assumed)
Weight loss (%) ([1]; 20 nmol/kg QD): 10.4 ± 1.2% | Activity relative to STD peptide (%), GCGR [2]: 1% | Activity relative to GLP-1 (%), GCGR [2, 5]: 0% | Relative % to native ligand, GCGR [2]: 1% | Ratio vs. GLP-1R, GCGR [2]: 0 | Relative % to non-lipidated peptide, GCGR [2]: 1% | Activity relative to STD peptide (%), GIPR [3]: 3% | Activity relative to GLP-1 (%), GIPR [3, 5]: 2% | Relative % to native ligand, GIPR [3]: 3% | Ratio vs. GLP-1R, GIPR [3]: 2 | Relative % to non-lipidated peptide, GIPR [3]: 0.4% | Activity relative to STD peptide (%), GLP-1R [4]: 145% | Activity relative to GLP-1 (%), GLP-1R [4, 5]: 100% | Relative % to native ligand, GLP-1R [4]: 145% | Ratio vs. GLP-1R, GLP-1R [4]: 100 | Relative % to non-lipidated peptide, GLP-1R [4]: 29%

CC[C@H](C)[C@H](NC(=O)[C@H](CC(C)C)NC(=O)[C@H](Cc1c[nH]c2ccccc12)NC(=O)[C@H](CCC(N)=O)NC(=O)[C@@H](NC(=O)[C@H](Cc1ccccc1)NC(=O)[C@H](CC(=O)O)NC(=O)[C@H](CCCNC(=N)N)NC(=O)[C@H](C)NC(=O)[C@H](CCSC)NC(=O)[C@H](CCSC)NC(=O)[C@H](Cc1ccc(O)cc1)NC(=O)[C@H](CC(=O)O)NC(=O)[C@H](CC(C)C)NC(=O)[C@H](Cc1ccc(O)cc1)NC(=O)[C@H](CCCCNC(=O)COCCOCCNC(=O)COCCOCCNC(=O)CC[C@H](NC(=O)CCCCCCCCCCCCCCCCC(=O)O)C(=O)O)NC(=O)[C@H](CO)NC(=O)[C@H](Cc1ccc(O)cc1)NC(=O)[C@H](CC(=O)O)NC(=O)[C@H](CO)NC(=O)[C@@H](NC(=O)[C@H](Cc1ccccc1)NC(=O)[C@@H](NC(=O)CNC(=O)[C@H](CCC(N)=O)NC(=O)C(C)(C)NC(=O)[C@@H](N)Cc1c[nH]cn1)[C@@H](C)O)[C@@H](C)O)C(C)C)C(=O)N[C@@H](CCC(=O)O)C(=O)NCC(=O)NCC(=O)N1CCC[C@H]1C(=O)N[C@@H](CO)C(=O)N[C@@H](CO)C(=O)NCC(=O)N[C@@H](C)C(=O)N1CCC[C@H]1C(=O)N1CCC[C@H]1C(=O)N1CCC[C@H]1C(=O)N[C@@H](CO)C(=O)N[C@@H](CSC1CC(=O)N(CCCCCC(=O)NNC(=O)CCCC[C@@H]2SC[C@@H]3NC(=O)N[C@@H]32)C1=O)C(N)=O (stereo partly shown) [5C, HAibQGT FTSDY SK*YLD YMMAR DFVQW LIEGG PSSGA PPPSB#]
Weight loss (%) ([1]; 10 nmol/kg QD): 9.6 ± 1.0% | Weight loss (%) ([1]; 20 nmol/kg QD): 14.1 ± 1.9% | Activity relative to STD peptide (%), Glucagon [2, 6]: 23% | Activity relative to GLP-1 (%), Glucagon [2, 7]: 12% | Activity relative to STD peptide (%), GIP [3, 6]: 8% | Activity relative to GLP-1 (%), GIP [3, 7]: 4% | Activity relative to STD peptide (%), GLP-1 [4, 6]: 202% | Activity relative to GLP-1 (%), GLP-1 [4, 7]: 100%

CSCC[C@H](NC(=O)[C@H](Cc1ccc(O)cc1)NC(=O)[C@H](CC(=O)O)NC(=O)[C@H](CC(C)C)NC(=O)[C@H](CC(C)C)NC(=O)[C@H](CCCCN)NC(=O)[C@H](CO)NC(=O)[C@H](Cc1ccc(O)cc1)NC(=O)[C@H](CC(=O)O)NC(=O)[C@H](CO)NC(=O)[C@@H](NC(=O)[C@H](Cc1ccccc1)NC(=O)[C@@H](NC(=O)CNC(=O)[C@H](CCC(N)=O)NC(=O)C(C)(C)NC(=O)[C@@H](N)Cc1c[nH]cn1)[C@@H](C)O)[C@@H](C)O)C(=O)N[C@@H](CCSC)C(=O)N[C@@H](CCC(N)=O)C(=O)N[C@@H](CCCNC(=N)N)C(=O)N[C@@H](CC(=O)O)C(=O)N[C@@H](Cc1ccccc1)C(=O)N[C@H](C(=O)N[C@@H](CCC(N)=O)C(=O)N[C@@H](Cc1c[nH]c2ccccc12)C(=O)N[C@@H](CC(C)C)C(=O)N[C@@H](CC(C)C)C(=O)N[C@@H](CCC(=O)O)C(=O)NCC(=O)NCC(=O)N1CCC[C@H]1C(=O)N[C@@H](CO)C(=O)N[C@@H](CO)C(=O)NCC(=O)N[C@@H](C)C(=O)N1CCC[C@H]1C(=O)N1CCC[C@H]1C(=O)N1CCC[C@H]1C(=O)N[C@@H](CO)C(=O)N[C@@H](CSC1CC(=O)N(CCNC(=O)COCCOCCNC(=O)COCCOCCNC(=O)CC[C@H](NC(=O)CCCCCCCCCCCCCCCCC(=O)O)C(=O)O)C1=O)C(N)=O)C(C)C (stereo partly shown) [5-5A] (H-H[Aib]QGTFTSDYSKLLDYMMQRDFVQWLLEGGPSSGAPPPSC(X1)-NH2; N-terminus assumed)
Weight loss (%) ([1]; 20 nmol/kg QD): 10.6 ± 1.0% | Activity relative to STD peptide (%), GCGR [2]: 1% | Activity relative to GLP-1 (%), GCGR [2, 5]: 0% | Relative % to native ligand, GCGR [2]: 1% | Ratio vs. GLP-1R, GCGR [2]: 0 | Relative % to non-lipidated peptide, GCGR [2]: 1% | Activity relative to STD peptide (%), GIPR [3]: 14% | Activity relative to GLP-1 (%), GIPR [3, 5]: 2% | Relative % to native ligand, GIPR [3]: 14% | Ratio vs. GLP-1R, GIPR [3]: 2 | Relative % to non-lipidated peptide, GIPR [3]: 3% | Activity relative to STD peptide (%), GLP-1R [4]: 673% | Activity relative to GLP-1 (%), GLP-1R [4, 5]: 100% | Relative % to native ligand, GLP-1R [4]: 673% | Ratio vs. GLP-1R, GLP-1R [4]: 100 | Relative % to non-lipidated peptide, GLP-1R [4]: 40%
